Reference: publication PMC9692855, “Amaryllidaceae Alkaloids from Clivia miniata (Lindl.) Bosse (Amaryllidaceae): Isolation, Structural Elucidation, and Biological Activity” (Plants, 2022)
Where two headings read alike, the source gives them in different places.

Key:
[1] = target: human recombinant AChE (E.C. 3.1.1.7) (Homo sapiens, UniProt P22303); test: biochemical; conditions: for inhibition at 100 µM: read-out: % Inhibition hAChE ± SEM
[2] = target: human plasma BuChE (E.C. 3.1.1.8) (Homo sapiens, UniProt P06276); test: biochemical; conditions: for inhibition at 100 µM: read-out: % Inhibition hBuChE ± SEM
human plasma BuChE (E.C. 3.1.1.8), sequence (P06276 29-602): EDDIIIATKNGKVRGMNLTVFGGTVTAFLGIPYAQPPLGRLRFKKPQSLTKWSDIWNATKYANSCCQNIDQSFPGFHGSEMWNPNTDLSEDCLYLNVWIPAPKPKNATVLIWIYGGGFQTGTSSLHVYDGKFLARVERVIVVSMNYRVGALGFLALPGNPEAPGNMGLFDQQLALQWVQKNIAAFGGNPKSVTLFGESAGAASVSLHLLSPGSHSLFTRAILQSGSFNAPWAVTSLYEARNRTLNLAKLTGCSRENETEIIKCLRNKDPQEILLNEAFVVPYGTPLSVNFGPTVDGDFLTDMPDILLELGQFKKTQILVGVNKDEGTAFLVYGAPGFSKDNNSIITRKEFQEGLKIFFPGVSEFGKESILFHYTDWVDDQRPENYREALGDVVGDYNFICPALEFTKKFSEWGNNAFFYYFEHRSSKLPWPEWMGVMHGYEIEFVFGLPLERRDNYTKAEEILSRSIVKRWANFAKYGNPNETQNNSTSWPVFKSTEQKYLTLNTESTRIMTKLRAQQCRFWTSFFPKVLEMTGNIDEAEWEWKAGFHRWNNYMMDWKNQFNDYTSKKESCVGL

[3] = mean ± SEM of three independent measurements, each in triplicate, read-out: IC50 hAChE ± SEM
[4] = tested at 100 µM compound concentration
[5] = mean ± SEM of three independent measurements, each in triplicate, read-out: IC50 hBuChE ± SEM

human recombinant AChE (E.C. 3.1.1.7), sequence (P22303 32-614): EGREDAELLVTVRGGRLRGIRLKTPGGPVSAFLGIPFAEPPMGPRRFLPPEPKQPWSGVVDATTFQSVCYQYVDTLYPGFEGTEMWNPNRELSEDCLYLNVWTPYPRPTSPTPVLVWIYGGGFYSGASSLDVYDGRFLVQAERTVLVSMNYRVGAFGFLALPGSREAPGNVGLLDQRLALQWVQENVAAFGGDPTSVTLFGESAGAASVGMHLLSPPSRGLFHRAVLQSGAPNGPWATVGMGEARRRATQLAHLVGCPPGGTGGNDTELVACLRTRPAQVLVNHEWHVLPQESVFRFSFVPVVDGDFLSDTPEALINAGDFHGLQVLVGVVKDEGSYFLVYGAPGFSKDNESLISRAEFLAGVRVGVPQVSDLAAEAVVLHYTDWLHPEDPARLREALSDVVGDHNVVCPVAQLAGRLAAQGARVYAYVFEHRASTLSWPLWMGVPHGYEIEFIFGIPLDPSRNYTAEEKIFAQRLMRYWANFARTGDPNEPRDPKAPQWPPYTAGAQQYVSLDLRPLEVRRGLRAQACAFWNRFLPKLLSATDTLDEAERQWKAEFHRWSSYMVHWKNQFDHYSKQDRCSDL

Structure (SMILES) | IC50 [1] | inhibition at 100 µM [1] | IC50 [2] | inhibition at 100 µM [2] | IC50 [1, 3] | inhibition at 100 µM [1, 4] | IC50 [2, 5] | inhibition at 100 µM [2, 4] | IC50 ([1]; read-out: IC50 hAChE ± SEM)
COc1cc2c(cc1O)CN1CCC23C=CC(OC(C)=O)CC13 (centres unmarked) [3-O-acetyl-8-O-demethylmaritidine (12), 3-O-acetyl-8-O-demethylmaritidine] | > 100 µM | 12.3 ± 1.29% | > 100 µM | 10.3 ± 2.06% |  |  |  |  | 
CC(O)CC(=O)O[C@H]1C[C@H]2CCN(C)[C@H]2[C@@H]2c3cc4c(cc3C(=O)O[C@H]21)OCO4 (some centres unmarked) [nobilisitine B (14), nobilisitine B] |  |  |  |  | > 100 µM | 40 ± 1.13% | > 100 µM | 12.6 ± 0.53% | 
Cc1nc(C)c(C(=O)O[C@H]2C[C@H]3CCN(C)[C@H]3[C@@H]3c4cc5c(cc4C(=O)O[C@H]32)OCO5)cc1C(=O)O[C@H]1C[C@H]2CCN(C)[C@H]2[C@@H]2c3cc4c(cc3C(=O)O[C@H]21)OCO4 [clivimine (2), clivimine] |  |  |  |  | > 100 µM | 9.62 ± 1.75% | > 100 µM | 15.2 ± 8.23% | 
COC(=O)c1cc(C(=O)O[C@H]2C[C@H]3CCN(C)[C@H]3[C@@H]3c4cc5c(cc4C(=O)O[C@H]32)OCO5)c(C)nc1C [cliniatine C (4), cliniatine C] |  |  |  |  | > 100 µM | 5.72 ± 0.53% | > 100 µM | 9.43 ± 1.23% | 
CN1CC[C@@H]2C[C@H](O)[C@@H]3OC(=O)c4cc5c(cc4[C@H]3[C@@H]21)OCO5 [clivonine (6), clivonine] | > 100 µM | 34.4 ± 1.68% | > 100 µM | 28.2 ± 6.63% |  |  |  |  | 
COc1ccc2c3c1O[C@H]1C[C@@H](O)C=C[C@@]31CCN(C)C2 [galanthamine, reference compound] |  |  |  | 68.2 ± 1.24% |  |  |  |  | 
COc1cc2c(cc1O)C(=O)N1CCC3=C[C@H](O)[C@@H](OC(C)=O)[C@@H]2[C@@H]31 [sternbergine (17), sternbergine] |  | 1.25 ± 0.23% |  | 23.5 ± 2.28% |  |  | > 100 µM |  | > 100 µM
Cc1nc(C)c(C(=O)OC2CC3CCN(C)C3C3c4cc5c(cc4C(=O)OC23)OCO5)cc1C(=O)OC1CC2CCN(C)C2c2c1oc(=O)c1cc3c(cc21)OCO3 (centres unmarked) [clivimine B (3), clivimine B] |  |  |  |  | > 100 µM | 10.1 ± 5.37% | > 100 µM | 7.69 ± 2.56% | 
